# Earlier results as cited in patent US20250221938A1, “PHARMACEUTICAL COMPOSITION, METHODS FOR TREATING AND USES THEREOF” (Boehringer Ingelheim International GmbH, priority 2015, published 2025).
# Structures can show the parent of a compound that is named as a salt.
# Conditions: metformin on its own, in the diabetic
compound,measurement,value
"CN(C)C(=N)N=C(N)N [metformin, metformin hydrochloride]",average improvement in the HbA1c value,1.0-1.5%
